Test system: Diabrotica speciosa
Assay: Dry bean field trials, Diabrotica speciosa damage and yield (Example 4)
Type: in vivo
Conditions: 150 L water/ha, two applications 7 d apart; for % Damage, % UNCK: 28 DAB, Lambda-cyhalothrin 100 at 0.15 L/ha; for Yield: plot
Source text: All applications were made with an EC formulation containing 650 g/L of pelargonic acid (e.g., 685 g/L of 95% purity pelargonic acid), an anionic emulsifier and a branched fatty acid ester solvent.
Diabrotica speciosa is a major pest in rice.
Dry Beans—Diabrotica speciosa

In the case of `CC1(C)[C@H](C(=O)O[C@H](C#N)c2cccc(Oc3ccccc3)c2)[C@@H]1/C=C(\Cl)C(F)(F)F` (racemic) [Lambda-cyhalothrin 100, Lambda-cyhalothrin, reference compound], the “% Damage, % UNCK” value (Trial 1, dry bean) is reported as 80.55b % UNCK, the Yield (Trial 1, dry bean) is reported as 2.55a Ton/ha and the “% Damage, % UNCK” value (Trial 2, dry bean) is reported as 81.41c % UNCK. It also gave a Yield (Trial 2, dry bean) of 2.29ab Ton/ha.

— patent US20250127162A1, “METHODS AND COMPOSITIONS FOR CONTROLLING PESTS IN RICE” (Globachem NV, priority 2022, published 2025)
